The target in assay [1] is soluble human BACE1 catalytic domain (Homo sapiens (Human), UniProt P56817). The experiment in a line: BACE-1 Ki Assay (BACE-1 HTRF FRET Assay). Particulars: Ki calculated from IC50 using the Cheng-Prusoff equation; QSY7-APPswe-Eu substrate 200 nM, pH 5.0. It is filed as biochemical. As to the method: In another embodiment, the compounds of the invention comprise the example compounds shown in the table below, or a tautomer thereof, or a pharmaceutically acceptable salt of said compound or said tautomer. Examples 2 to 42 were prepared using the method similar to Ex. 1. Example 44 to 51 were synthesized using the method similar to Ex. 43. BACE-1 values reported in this table were measured using BACE-1 Ki Assay (BACE-1 HTRF FRET Assay).
• Reagents: Na^+-Acetate pH 5.0; 1% Brij-35; Glycerol; Dimethyl Sulfoxide (DMSO); Recombinant human soluble BACE1 catalytic domain (>95% pure); APP Swedish mutant peptide substrate (QSY7-APP^swe-Eu): QSY7-EISEVNLDAEFC-Europium-amide.
A homogeneous time-resolved FRET assay can be used to determine IC50 values for inhibitors of the soluble human BACE1 catalytic domain. This assay monitors the increase of 620 nm fluorescence that resulted from BACE1 cleavage of an APPswedish APP^swe mutant peptide FRET substrate (QSY7-EISEVNLDAEFC-Europium-amide). This substrate contains an N-terminal QSY7 moiety that serves as a quencher of the C-terminal Europium fluorophore (620 nm Em). In the absence of enzyme activity, 620 nm fluorescence is low in the assay and increased linearly over 3 hours in the presence of uninhibited BACE1 enzyme. Inhibition of BACE1 cleavage of the QSY7-APP^swe-Eu substrate by inhibitors is manifested as a suppression of 620 nm fluorescence.
Varying concentrations of inhibitors at 3× the final desired concentration in a volume of 10 ul are preincubated with purified human BACE1 catalytic domain (3 nM in 10 μl) for 30 minutes at 30° C. in reaction buffer containing 20 mM Na-Acetate pH 5.0, 10% glycerol, 0.1% Brij-35 and 7.5% DSMO. Reactions are initiated by addition of 10 μl of 600 nM QSY7-APP^swe-Eu substrate (200 nM final) to give a final reaction volume of 30 μl in a 384 well Nunc HTRF plate. The reactions are incubated at 30° C. for 1.5 hours. The 620 nm fluorescence is then read on a Rubystar HTRF plate reader (BMG Labtechnologies) using a 50 millisecond delay followed by a 400 millisecond acquisition time window. Inhibitor IC50 values are derived from non-linear regression analysis of concentration response curves. Ki values are then calculated from IC50 values using the Cheng-Prusoff equation using a previously determined […] of 8 μM for the QSY7-APP^swe-Eu substrate at BACE1.

In assay [2] the target is purified human autoBACE-2 (Homo sapiens (Human), UniProt Q9Y5Z0). The experiment in a line: BACE-2 Assay (BACE-HTRF assay). It is filed as biochemical. Conditions: Ki calculated from IC50 using the Cheng-Prusoff equation; QSY7-EISEVNLDAEFC-Eu-amide substrate 200 nM, pH 5.0. As for the experimental part:
Inhibitor IC50s at purified human autoBACE-2 are determined in a time-resolved endpoint proteolysis assay that measures hydrolysis of the QSY7-EISEVNLDAEFC-Eu-amide FRET peptide substrate (BACE-HTRF assay). BACE-mediated hydrolysis of this peptide results in an increase in relative fluorescence (RFU) at 620 nm after excitation with 320 nm light. Inhibitor compounds, prepared at 3× the desired final concentration in 1×BACE assay buffer (20 mM sodium acetate pH 5.0, 10% glycerol, 0.1% Brij-35) supplemented with 7.5% DMSO are pre-incubated with an equal volume of autoBACE-2 enzyme diluted in 1×BACE assay buffer (final enzyme concentration 1 nM) in black 384-well NUNC plates for 30 minutes at 30° C. […] DMSO is present at […] final concentration in the assay. Following laser excitation of sample wells at 320 nm, the fluorescence signal at 620 nm is collected for 400 ms following a 50 μs delay on a RUBYstar HTRF plate reader (BMG Labtechnologies). Raw RFU data is normalized to maximum (1.0 nM BACE/DMSO) and minimum (no enzyme/DMSO) RFU values. IC50s are determined by nonlinear regression analysis (sigmoidal dose response, variable slope) of percent inhibition data with minimum and maximum values set to 0 and 100 percent respectively. Similar IC50s are obtained when using raw RFU data. The Ki values are calculated from the IC50 using the Cheng-Prusoff equation.

Results on 20 compounds are retold here after patent US9868738B2, “Diazine-fused amidines as BACE inhibitors, compositions, and their use” (Merck Sharp & Dohme Corp., priority 2014, dated 2018).

The term Ki denotes a measure of affinity in units of concentration, obtained from inhibition or displacement.

purified human autoBACE-2, sequence (Q9Y5Z0 63-473 limits assumed): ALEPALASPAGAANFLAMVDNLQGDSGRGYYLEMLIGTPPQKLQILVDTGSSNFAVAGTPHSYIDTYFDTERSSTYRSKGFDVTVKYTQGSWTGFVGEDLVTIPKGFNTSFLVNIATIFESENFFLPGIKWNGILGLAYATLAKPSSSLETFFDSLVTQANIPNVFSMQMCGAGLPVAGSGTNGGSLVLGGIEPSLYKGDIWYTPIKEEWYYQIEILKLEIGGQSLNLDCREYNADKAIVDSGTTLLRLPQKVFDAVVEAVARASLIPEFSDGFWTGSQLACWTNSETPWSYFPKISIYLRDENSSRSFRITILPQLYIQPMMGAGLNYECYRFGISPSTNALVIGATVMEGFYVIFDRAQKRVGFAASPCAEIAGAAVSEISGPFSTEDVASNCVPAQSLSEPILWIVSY
soluble human BACE1 catalytic domain, sequence (P56817 75-416): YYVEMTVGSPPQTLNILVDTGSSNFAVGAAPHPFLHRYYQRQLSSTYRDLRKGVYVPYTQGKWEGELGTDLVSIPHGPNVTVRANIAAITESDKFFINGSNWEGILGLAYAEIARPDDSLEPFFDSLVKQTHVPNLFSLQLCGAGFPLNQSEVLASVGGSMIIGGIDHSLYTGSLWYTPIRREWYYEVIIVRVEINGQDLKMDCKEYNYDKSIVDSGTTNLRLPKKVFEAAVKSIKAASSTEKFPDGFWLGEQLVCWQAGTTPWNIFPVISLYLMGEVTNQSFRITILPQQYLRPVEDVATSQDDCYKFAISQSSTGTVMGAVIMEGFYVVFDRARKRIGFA

As for `C[C@@]1(c2sc(-c3cccc(C#N)c3)cc2Cl)Cc2ncncc2C(=N)N1` [Example 13, 3-{4-chloro-5-[(7S)-5-imino-7-methyl-5,6,7,8-tetrahydropyrido[4,3-d]pyrimidin-7-yl]thiophen-2-yl}benzonitrile], the Ki in assay [1] is 35.2 nM; in assay [2], 15.1 nM.
Regarding `Cc1ncc2c(n1)C[C@@](C)(c1cc(NC(=O)c3ccc(F)cn3)ccc1F)NC2=N` [Example 44, 5-fluoro-N-{4-fluoro-3-[(7S)-5-imino-2,7-dimethyl-5,6,7,8-tetrahydropyrido[4,3-d]pyrimidin-7-yl]phenyl}pyridine-2-carboxamide], the figures for the inhibitory constant (Ki) in assay [1] and in assay [2] were 16.8 nM and 4.5 nM, respectively.
For `C[C@@]1(c2cc(-c3cccc(C#N)c3)cs2)Cc2nc(C(F)(F)F)ncc2C(=N)N1` [Example 40, 3-{5-[(7S)-5-imino-7-methyl-2-(trifluoromethyl)-5,6,7,8-tetrahydropyrido[4,3-d]pyrimidin-7-yl]thiophen-3-yl}benzonitrile], the values for the inhibition constant (Ki) in assay [1] and in assay [2] were 58.2 nM and 23.1 nM, respectively.
Taken in the same sequence, the figures for `COc1cccc(-c2ccc(F)c([C@]3(C)Cc4ncncc4C(=N)N3)c2)c1` [Example 5, (7S)-7-(4-fluoro-3′-methoxybiphenyl-3-yl)-7-methyl-7,8-dihydro-pyrido[4,3-d]pyrimidin-5(6H)-imine] were 199 nM and 53.5 nM.
Regarding `C[C@@]1(c2cc(NC(=O)c3ccc(C(F)(F)F)cn3)ccc2F)Cc2nc(C3CC3)ncc2C(=N)N1` [Example 49, N-{3-[(7S)-2-cyclopropyl-5-imino-7-methyl-5,6,7,8-tetrahydropyrido[4,3-d]pyrimidin-7-yl]-4-fluorophenyl}-5-(trifluoromethyl)pyridine-2-carboxamide], the inhibition constant (Ki) was 20.5 nM in assay [1] and 34.2 nM in assay [2].
On to `C[C@@]1(c2cc(-c3cccc(C#N)c3)ccc2F)Cc2ncncc2C(=N)N1` [Example 11, 4′-fluoro-3′-[(7S)-5-imino-7-methyl-5,6,7,8-tetrahydropyrido[4,3-d]pyrimidin-7-yl]biphenyl-3-carbonitrile], for which the figures for the inhibition constant (Ki) in assay [1] and in assay [2] were 827 nM and 259 nM, respectively.
In the case of `C[C@@]1(c2cc(NC(=O)c3ccc(C#N)cn3)ccc2F)Cc2nccnc2C(=N)N1` [Example 51, 5-cyano-N-{4-fluoro-3-[(7S)-5-imino-7-methyl-5,6,7,8-tetrahydropyrido[3,4-b]pyrazin-7-yl]phenyl}pyridine-2-carboxamide], the figures for the Ki in assay [1] and in assay [2] were 62.7 nM and 207 nM, respectively.
With `C[C@@]1(c2cc(-c3cncc(C#N)c3)cs2)Cc2nc(C(F)(F)F)ncc2C(=N)N1` [Example 41, 5-{5-[(7S)-5-imino-7-methyl-2-(trifluoromethyl)-5,6,7,8-tetrahydropyrido[4,3-d]pyrimidin-7-yl]thiophen-3-yl}pyridine-3-carbonitrile], the Ki is 208 nM in assay [1] and 97.7 nM in assay [2].
As to `Cc1ncc2c(n1)C[C@@](C)(c1cc(NC(=O)c3ccc(C(F)(F)F)cn3)ccc1F)NC2=N` [Example 46, N-{4-fluoro-3-[(7S)-5-imino-2,7-dimethyl-5,6,7,8-tetrahydropyrido[4,3-d]pyrimidin-7-yl]phenyl}-5-(trifluoromethyl)pyridine-2-carboxamide], the values for the inhibition constant Ki in assay [1] and in assay [2] were 18.1 nM and 48.3 nM, respectively.
On to `COc1cncc(-c2ccc(F)c([C@]3(C)Cc4ncncc4C(=N)N3)c2)c1` [Example 8, (7S)-7-[2-fluoro-5-(5-methoxypyridin-3-yl)phenyl]-7-methyl-7,8-dihydropyrido[4,3-d]pyrimidin-5(6H)-imine], for which the Ki in assay [1] is 225 nM; in assay [2] it was 87.8 nM.
Take `C[C@@]1(c2sc(-c3ccc(F)c(C#N)c3)cc2Cl)Cc2ncncc2C(=N)N1` [Example 16, 5-{4-chloro-5-[(7S)-5-imino-7-methyl-5,6,7,8-tetrahydropyrido[4,3-d]pyrimidin-7-yl]thiophen-2-yl}-2-fluorobenzonitrile]: the Ki in assay [1] was 36.4 nM; in assay [2], 16.7 nM.
In the case of `C[C@@]1(c2cc(-c3cccc(-c4nnco4)c3)cs2)Cc2nc(C3CC3)ncc2C(=N)N1` [Example 34, (7S)-2-cyclopropyl-7-methyl-7-{4-[3-(1,3,4-oxadiazol-2-yl)phenyl]thiophen-2-yl}-7,8-dihydropyrido[4,3-d]pyrimidin-5(6H)-imine], the inhibition constant (Ki) was 85 nM in assay [1] and 215 nM in assay [2].
With `CC#Cc1cncc(-c2ccc(F)c([C@]3(C)Cc4ncncc4C(=N)N3)c2)c1` [Example 12, (7S)-7-[2-fluoro-5-(5-prop-1-yn-1-ylpyridin-3-yl)phenyl]-7-methyl-7,8-dihydropyrido[4,3-d]pyrimidin-5(6H)-imine], the results for the inhibition constant Ki in assay [1] and in assay [2] were 108 nM and 20.2 nM, respectively.
`C[C@@]1(c2sc(-c3cncc(C#N)c3)cc2Cl)Cc2nc(C3CC3)ncc2C(=N)N1` [Example 37, 5-{4-chloro-5-[(7S)-2-cyclopropyl-5-imino-7-methyl-5,6,7,8-tetrahydropyrido[4,3-d]pyrimidin-7-yl]thiophen-2-yl}pyridine-3-carbonitrile]: the inhibition constant Ki is 94.7 nM in assay [1] and 44.2 nM in assay [2].
Taken in the same sequence, the figures for `Cc1ncc2c(n1)C[C@@](C)(c1sc(-c3cccc(C#N)c3)cc1Cl)NC2=N` [Example 24, 3-{4-chloro-5-[(7S)-5-imino-2,7-dimethyl-5,6,7,8-tetrahydropyrido[4,3-d]pyrimidin-7-yl]thiophen-2-yl}benzonitrile] were 52.7 nM and 28 nM.
As to `Cc1ncc2c(n1)C[C@@](C)(c1sc(-c3cccc(-c4ncno4)c3)cc1Cl)NC2=N` [Example 29, (7S)-7-{3-chloro-5-[3-(1,2,4-oxadiazol-5-yl)phenyl]thiophen-2-yl}-2,7-dimethyl-7,8-dihydropyrido[4,3-d]pyrimidin-5(6H)-imine], the results for the Ki in assay [1] and in assay [2] were 482 nM and 79.7 nM, respectively.
On to `C[C@@]1(c2sc(-c3cccc(-c4nnco4)c3)cc2Cl)Cc2ncncc2C(=N)N1` [Example 15, (7S)-7-{3-chloro-5-[3-(1,3,4-oxadiazol-2-yl)phenyl]thiophen-2-yl}-7-methyl-7,8-dihydropyrido[4,3-d]pyrimidin-5(6H)-imine], for which the inhibitory constant (Ki) in assay [1] is 11.1 nM; in assay [2] it was 37.3 nM.
As to `C[C@@]1(c2cc(-c3cncc(C#N)c3)cs2)Cc2nc(C3CC3)ncc2C(=N)N1` [Example 35, 5-{5-[(7S)-2-cyclopropyl-5-imino-7-methyl-5,6,7,8-tetrahydropyrido[4,3-d]pyrimidin-7-yl]thiophen-3-yl}pyridine-3-carbonitrile], the results for the inhibition constant (Ki) in assay [1] and in assay [2] were 224 nM and 142 nM, respectively.
For `C[C@@]1(c2cc(-c3cncnc3)ccc2F)Cc2ncncc2C(=N)N1` [Example 7, (7S)-7-(2-fluoro-5-pyrimidin-5-ylphenyl)-7-methyl-7,8-dihydro-pyrido[4,3-d]pyrimidin-5(6H)-imine], the results for the Ki in assay [1] and in assay [2] were 771 nM and 3460 nM, respectively.
On to `COc1cccc2cc(-c3csc([C@]4(C)Cc5nc(C(F)(F)F)ncc5C(=N)N4)c3)[nH]c12` [Example 39, (7S)-7-[4-(7-methoxy-1H-indo1-2-yl)thiophen-2-yl]-7-methyl-2-(trifluoromethyl)-7,8-dihydropyrido[4,3-d]pyrimidin-5(6H)-imine], for which the inhibitory constant (Ki) was 28.9 nM in assay [1] and 1.5 nM in assay [2].
